The values that follow come from patent publication US20230107642A1 (Erasca, Inc., priority 2020, published 2023).

Structures are written as SMILES.

For the assay, the target named is T1, K-Ras G12C (Homo sapiens, UniProt P01116, G12C).
T1 construct: This protein contained 188 amino acids in total, including an N-terminal 6-Histidine tag; made in house; host or cells: E. coli BL21
In words: CAF assay (% CAF; method in Example 7, not in this part). In kind it is binding. To be noted: 10 uM compound, 1 h incubation.
Turning to `C=CC(=O)N1C[C@H](C)N(c2nc(=O)n3c4c(c(-c5ccc(F)cc5)c(Cl)cc24)SC[C@@H]3COCCOC)C[C@H]1C` [Example 558, (S)-7-((2S,5R)-4-acryloyl-2,5-dimethylpiperazin-1-yl)-9-chloro-10-(4-fluorophenyl)-3-((2-methoxyethoxy)methyl)-2H-[1,4]thiazino[2,3,4-ij]quinazolin-5(3H)-one], the “% CAF @ 10 uM, 1h” value came to 64.3%.
To `C=CC(=O)N1[C@H](C)CN(c2nc(=O)n3c4c(c(-c5cc(Cl)c(F)cc5F)c(C(F)(F)F)cc24)SC[C@@H]3COC)C[C@@H]1C` [Example 559, (3S)-7-((3S,5R)-4-acryloyl-3,5-dimethylpiperazin-1-yl)-10-(5-chloro-2,4-difluorophenyl)-3-(methoxymethyl)-9-(trifluoromethyl)-2H-[1,4]thiazino[2,3,4-ij]quinazolin-5(3H)-one] belongs 83.8%.
In the case of `C=CC(=O)N1[C@H](C)CN(c2nc(=O)n3c4c(c(-c5ccc(F)cc5F)c(C(F)(F)F)cc24)SC[C@@H]3CN2C[C@@H]3C[C@H]2CO3)C[C@@H]1C` [Example 560, (3S)-3-(((1S,4S)-2-oxa-5-azabicyclo[2.2.1]heptan-5-yl)methyl)-7-((3S,5R)-4-acryloyl-3,5-dimethylpiperazin-1-yl)-10-(2,4-difluorophenyl)-9-(trifluoromethyl)-2,3-dihydro-5H-[1,4]thiazino[2,3,4-ij]quinazolin-5-one], the “% CAF @ 10 uM, 1h” value was 95.6%.
Next, `C=CC(=O)N1C[C@H](C)N(c2nc(=O)n3c4c(c(-c5ccc(F)cc5F)c(C(F)(F)F)cc24)SC[C@@H]3CN2CCN(CC#N)CC2)C[C@H]1C` [Example 561, 2-(4-(((3S)-7-((2S,5R)-4-acryloyl-2,5-dimethylpiperazin-1-yl)-10-(2,4-difluorophenyl)-5-oxo-9-(trifluoromethyl)-3,5-dihydro-2H-[1,4]thiazino[2,3,4-ij]quinazolin-3-yl)methyl)piperazin-1-yl)acetonitrile]: 10.4%; `C=CC(=O)N1C[C@H](C)N(c2nc(=O)n3c4c(c(-c5ccc(F)cc5F)c(C(F)(F)F)cc24)SC[C@@H]3CN2CCN(CC(F)F)CC2)C[C@H]1C` [Example 562, (3S)-7-((2S,5R)-4-acryloyl-2,5-dimethylpiperazin-1-yl)-3-((4-(2,2-difluoroethyl)piperazin-1-yl)methyl)-10-(2,4-difluorophenyl)-9-(trifluoromethyl)-2H-[1,4]thiazino[2,3,4-ij]quinazolin-5(3H)-one]: 83.6%; `C=CC(=O)N1[C@H](C)CN(c2nc(=O)n3c4c(c(-c5cc(Cl)c(F)cc5F)c(C(F)(F)F)cc24)SC[C@@H]3COCOC)C[C@@H]1C` [Example 567, (3S)-7-((3S,5R)-4-acryloyl-3,5-dimethylpiperazin-1-yl)-10-(5-chloro-2,4-difluorophenyl)-3-((methoxymethoxy)methyl)-9-(trifluoromethyl)-2H-[1,4]thiazino[2,3,4-ij]quinazolin-5(3H)-one]: 64.4%.
To `C=CC(=O)N1[C@H](C)CN(c2nc(=O)n3c4c(c(-c5cc(Cl)c(F)cc5F)c(C(F)(F)F)cc24)SC[C@@H]3CO)C[C@@H]1C` [Example 568, (3S)-7-((3S,5R)-4-acryloyl-3,5-dimethylpiperazin-1-yl)-10-(5-chloro-2,4-difluorophenyl)-3-(hydroxymethyl)-9-(trifluoromethyl)-2H-[1,4]thiazino[2,3,4-ij]quinazolin-5(3H)-one] belongs 52.3%; to `C=CC(=O)N1C2CC(=O)CC1CN(c1nc(=O)n3c4c(c(-c5ccc(F)cc5F)c(C(F)(F)F)cc14)SC[C@@H]3COC)C2` [Example 571, (3S)-7-(9-acryloyl-7-oxo-3,9-diazabicyclo[3.3.1]nonan-3-yl)-10-(2,4-difluorophenyl)-3-(methoxymethyl)-9-(trifluoromethyl)-2H-[1,4]thiazino[2,3,4-ij]quinazolin-5(3H)-one], 95.2%.
To `C=CC(=O)N1CCN(c2nc(=O)n3c4c(c(-c5cc(Cl)c(F)cc5F)c(C(F)(F)F)cc24)SC[C@@H]3COC)CC1` [Example 572, (3S)-7-(4-acryloylpiperazin-1-yl)-10-(5-chloro-2,4-difluorophenyl)-3-(methoxymethyl)-9-(trifluoromethyl)-2H-[1,4]thiazino[2,3,4-ij]quinazolin-5(3H)-one] belongs 93.6%; to `C=CC(=O)N1C[C@H](C)N(c2nc(=O)n3c4c(c(-c5ccc(F)cc5)c(Cl)cc24)SC[C@@H]3COC)C[C@H]1C` [Example 573, (S)-7-((2S,5R)-4-acryloyl-2,5-dimethylpiperazin-1-yl)-9-chloro-10-(4-fluorophenyl)-3-(methoxymethyl)-2H-[1,4]thiazino[2,3,4-ij]quinazolin-5(3H)-one], 76.4%.
For `C=CC(=O)N1C[C@H](C)N(c2nc(=O)n3c4c(c(-c5ccc(F)cc5)c(C(F)(F)F)cc24)SC[C@@H]3CN2CCN(CC(F)F)CC2)C[C@H]1C` [Example 574, (S)-7-((2S,5R)-4-acryloyl-2,5-dimethylpiperazin-1-yl)-3-((4-(2,2-difluoroethyl)piperazin-1-yl)methyl)-10-(4-fluorophenyl)-9-(trifluoromethyl)-2H-[1,4]thiazino[2,3,4-ij]quinazolin-5(3H)-one], the “% CAF @ 10 uM, 1h” value was determined as 83.2%.
Next, `C=CC(=O)N1C[C@H](C)N(c2nc(=O)n3c4c(c(-c5ccc(F)cc5F)c(C(F)(F)F)cc24)SC[C@@H]3CN2CCN(CC(N)=O)CC2)C[C@H]1C` [Example 575, 2-(4-(((3S)-7-((2S,5R)-4-acryloyl-2,5-dimethylpiperazin-1-yl)-10-(2,4-difluorophenyl)-5-oxo-9-(trifluoromethyl)-3,5-dihydro-2H-[1,4]thiazino[2,3,4-ij]quinazolin-3-yl)methyl)piperazin-1-yl)acetamide]: 89.5%; `C=CC(=O)N1CCN(c2nc(=O)n3c4c(c(-c5cc(Cl)c(F)cc5F)c(C(F)(F)F)cc24)SC[C@@H](OC)C3)CC1` [Example 582, (3S)-8-(4-acryloylpiperazin-1-yl)-11-(5-chloro-2,4-difluorophenyl)-3-methoxy-10-(trifluoromethyl)-3,4-dihydro-2H,6H-[1,4]thiazepino[2,3,4-ij]quinazolin-6-one]: 88%.
In the case of `C=CC(=O)N1CCN(c2nc(=O)n3c4c(c(-c5cc(Cl)c(F)cc5F)c(C(F)(F)F)cc24)SC[C@@H](OC)C3)[C@@H](C)C1` [Example 583, (3S)-8-((S)-4-acryloyl-2-methylpiperazin-1-yl)-11-(5-chloro-2,4-difluorophenyl)-3-methoxy-10-(trifluoromethyl)-3,4-dihydro-2H,6H-[1,4]thiazepino[2,3,4-ij]quinazolin-6-one], the “% CAF @ 10 uM, 1h” value stood at 91%.
With `C=CC(=O)N1[C@H](C)CN(c2nc(=O)n3c4c(c(-c5ccc(F)cc5)c(C(F)(F)F)cc24)SC[C@H](OC)C3)C[C@@H]1C` [Example 584, (R)-8-((3S,5R)-4-acryloyl-3,5-dimethylpiperazin-1-yl)-11-(4-fluorophenyl)-3-methoxy-10-(trifluoromethyl)-3,4-dihydro-2H,6H-[1,4]thiazepino[2,3,4-ij]quinazolin-6-one], the “% CAF @ 10 uM, 1h” value is given as 97%.
In the case of `C=CC(=O)N1[C@H](C)CN(c2nc(=O)n3c4c(c(-c5ccc(F)cc5)c(C(F)(F)F)cc24)SC[C@@H](OC)C3)C[C@@H]1C` [Example 585, (S)-8-((3S,5R)-4-acryloyl-3,5-dimethylpiperazin-1-yl)-11-(4-fluorophenyl)-3-methoxy-10-(trifluoromethyl)-3,4-dihydro-2H,6H-[1,4]thiazepino[2,3,4-ij]quinazolin-6-one], the “% CAF @ 10 uM, 1h” value was found to be 97%.
With `C=CC(=O)N1[C@H](C)CN(c2nc(=O)n3c4c(c(-c5ccc(F)cc5F)c(C(F)(F)F)cc24)SC[C@H](N(C)C)C3)C[C@@H]1C` [Example 586, (3R)-8-((3S,5R)-4-acryloyl-3,5-dimethylpiperazin-1-yl)-11-(2,4-difluorophenyl)-3-(dimethylamino)-10-(trifluoromethyl)-3,4-dihydro-2H,6H-[1,4]thiazepino[2,3,4-ij]quinazolin-6-one], the “% CAF @ 10 uM, 1h” value came to 40%.
Next, `C=CC(=O)N1[C@H](C)CN(c2nc(=O)n3c4c(c(-c5cc(Cl)c(F)cc5F)c(C(F)(F)F)cc24)SC[C@@H]3CN(C)C)C[C@@H]1C` [Example 587, (3S)-7-((3S,5R)-4-acryloyl-3,5-dimethylpiperazin-1-yl)-10-(5-chloro-2,4-difluorophenyl)-3-((dimethylamino)methyl)-9-(trifluoromethyl)-2H-[1,4]thiazino[2,3,4-ij]quinazolin-5(3H)-one]: 58.9%.
Regarding `C=CC(=O)N1C[C@H](C)N(c2nc(=O)n3c4c(c(-c5ccc(F)cc5F)c(C(F)(F)F)cc24)SCC2(COC2)C3)C[C@H]1C` [Example 588, 8′-((2S,5R)-4-Acryloyl-2,5-dimethylpiperazin-1-yl)-11′-(2,4-difluorophenyl)-10′-(trifluoromethyl)-2′H,4′H,6′H-spiro[oxetane-3,3′-[1,4]thiazepino[2,3,4-ij]quinazolin]-6′-one], the “% CAF @ 10 uM, 1h” value is on record as 95.9%.
In the case of `[2H]C1([2H])N(C(=O)C=C)C([2H])([2H])C([2H])([2H])N(c2nc(=O)n3c4c(c(-c5ccc(F)cc5F)c(C(F)(F)F)cc24)SCC2(COC2)C3)C1([2H])[2H]` [Example 589, 8′-(4-Acryloylpiperazin-1-yl-2,2,3,3,5,5,6,6-d8)-11′-(2,4-difluorophenyl)-10′-(trifluoromethyl)-2′H,4′H,6′H-spiro[oxetane-3,3′-[1,4]thiazepino[2,3,4-ij]quinazolin]-6′-one], the “% CAF @ 10 uM, 1h” value was 92.9%.
